According to patent US20220135591A1, “HETEROCYCLIC COMPOUNDS AS INHIBITORS OF MONOACYLGLYCEROL LIPASE (MAGL)” (Hoffmann-La Roche Inc., priority 2019, published 2022):

Target: T1, MAGL (Homo sapiens, UniProt Q99685)
T1 sequence (Q99685 1-303): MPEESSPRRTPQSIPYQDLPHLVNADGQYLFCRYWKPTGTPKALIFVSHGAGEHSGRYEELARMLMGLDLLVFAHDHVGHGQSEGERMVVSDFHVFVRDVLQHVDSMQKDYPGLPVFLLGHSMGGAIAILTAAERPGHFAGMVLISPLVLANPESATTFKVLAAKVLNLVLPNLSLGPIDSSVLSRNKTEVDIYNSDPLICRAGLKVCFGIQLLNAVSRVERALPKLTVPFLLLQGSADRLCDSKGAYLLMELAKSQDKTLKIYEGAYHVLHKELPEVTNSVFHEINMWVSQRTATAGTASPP
Assay: 2-AG assay: MAGL inhibitory activity by hydrolysis of 2-arachidonoylglycerol to arachidonic acid, mass spectrometry
Format: biochemical
Details: 2-AG assay (values marked [b])
Method: Alternatively, compounds were profiled for MAGL inhibitory activity by determining the enzymatic activity by following the hydrolysis of the natural substrate 2-arachidonoylglycerol (2-AG) resulting in arachidonic acid, which can be followed by mass spectrometry. This assay is hereinafter abbreviated “2-AG assay”.
The 2-AG assay was carried out in 384 well assay plates (PP, Greiner Cat #784201) in a total volume of 20 μL. Compound dilutions were made in 100% DMSO (VWR Chemicals 23500.297) in a polypropylene plate in 3-fold dilution steps to give a final concentration range in the assay from 12.5 μM to […]. 0.25 μL compound dilutions (100% DMSO) were added to 9 μL MAGL in assay buffer (50 mM TRIS (GIBCO, 15567-027), 1 mM EDTA (Fluka, 03690-100 mL), 0.01% (v/v) Tween. After shaking, the plate was incubated for 15 min at RT. To start the reaction, 10 μL 2-arachidonoylglycerol in assay buffer was added. The final concentrations in the assay was […] and 8 μM 2-arachidonoylglyerol. After shaking and 30 min incubation at RT, the reaction was quenched by the addition of 40 μL of ACN containing 4 μM of d8-arachidonic acid. The amount of arachidonic acid was traced by an online SPE system (Agilent Rapidfire) coupled to a triple quadrupole mass spectrometer (Agilent 6460). A C18 SPE cartridge (G9205A) was used in an ACN/water liquid setup. The mass spectrometer was operated in negative electrospray mode following the mass transitions 303.1→259.1 for arachidonic acid and 311.1→267.0 for d8-arachidonic acid. The activity of the compounds was calculated based on the ratio of intensities [arachidonic acid/d8-arachidonic acid].

Compound | IC50
Cc1ccc2oc(N3CCN(C(=O)c4ccc(-c5ncn(C(C)(C)C)n5)c(C(F)(F)F)c4)CC3)nc2n1 [Example 111, [4-(1-tert-butyl-1,2,4-triazol-3-yl)-3-(trifluoromethyl)phenyl]-[4-(5-methyl-[1,3]oxazolo[4,5-b]pyridin-2-yl)piperazin-1-yl]methanone] | 28 nM
CC(C)(C)n1cnc(-c2ccc(C(=O)N3CCN(c4nc5nc(Cl)ccc5o4)CC3)cc2C(F)(F)F)n1 [Example 112, [4-(1-tert-butyl-1,2,4-triazol-3-yl)-3-(trifluoromethyl)phenyl]-[4-(5-chloro-[1,3]oxazolo[4,5-b]pyridin-2-yl)piperazin-1-yl]methanone] | 12 nM
Cc1ccc2oc(N3CCN(C(=O)c4ccc(-c5cn(CC6COC6)nn5)cc4)CC3)nc2n1 [Example 113, [4-(5-methyl-[1,3]oxazolo[4,5-b]pyridin-2-yl)piperazin-1-yl]-[4-[1-(oxetan-3-ylmethyl)triazol-4-yl]phenyl]methanone] | 4270 nM
O=C(c1ccc(-c2cn(CC3COC3)nn2)cc1)N1CCN(c2nc3nc(Cl)ccc3o2)CC1 [Example 114, [4-(5-chloro-[1,3]oxazolo[4,5-b]pyridin-2-yl)piperazin-1-yl]-[4-[1-(oxetan-3-ylmethyl)triazol-4-yl]phenyl]methanone] | 5550 nM
CC(C)(C)c1nnc(-c2ccc(C(=O)N3CCN(c4nc5nc(Cl)ccc5o4)CC3)cc2Cl)o1 [Example 115, (4-(5-(tert-butyl)-1,3,4-oxadiazol-2-yl)-3-chlorophenyl)(4-(5-chlorooxazolo[4,5-b]pyridin-2-yl)piperazin-1-yl)methanone] | 8 nM
Cc1ccc2oc(N3CCN(C(=O)c4ccc(-c5nnc(C(C)(C)C)o5)c(Cl)c4)CC3)nc2n1 [Example 117, (4-(5-(tert-butyl)-1,3,4-oxadiazol-2-yl)-3-chlorophenyl)(4-(5-methyloxazolo[4,5-b]pyridin-2-yl)piperazin-1-yl)methanone] | 34 nM
Cc1ccc2oc(N3CCN(C(=O)c4cc(O)c(-c5nnc(C(C)(C)C)o5)c(F)c4)CC3)nc2n1 [Example 118, (4-(5-(tert-butyl)-1,3,4-oxadiazol-2-yl)-3-fluoro-5-hydroxyphenyl)(4-(5-methyloxazolo[4,5-b]pyridin-2-yl)piperazin-1-yl)methanone] | 368 nM
Cn1nc(C(C)(C)C)nc1-c1ccc(C(=O)N2CCN(c3nc4nc(Cl)ccc4o3)CC2)cc1 [Example 119, [4-(5-tert-butyl-2-methyl-1,2,4-triazol-3-yl)phenyl]-[4-(5-chlorooxazolo[4,5-b]pyridin-2-yl)piperazin-1-yl]methanone] | 140 nM
Cc1cc(C(=O)N2CCN(c3nc4nc(Cl)ccc4o3)CC2)cnc1-n1cc(C(C)(C)C)cn1 [Example 120, [6-(4-tert-butylpyrazol-1-yl)-5-methylpyridin-3-yl]-[4-(5-chloro-[1,3]oxazolo[4,5-b]pyridin-2-yl)piperazin-1-yl]methanone] | 4 nM
Cc1ccc2oc(N3CCN(C(=O)c4ccc(-c5nnc(C(C)(C)C)o5)c(C(F)(F)F)c4)CC3)nc2n1 [Example 121, [4-(5-tert-butyl-1,3,4-oxadiazol-2-yl)-3-(trifluoromethyl)phenyl]-[4-(5-methyloxazolo[4,5-b]pyridin-2-yl)piperazin-1-yl]methanone] | 13 nM
CC(C)(C)c1nnc(-c2ccc(C(=O)N3CCN(c4nc5nc(Cl)ccc5o4)CC3)cc2C(F)(F)F)o1 [Example 122, [4-(5-tert-butyl-1,3,4-oxadiazol-2-yl)-3-(trifluoromethyl)phenyl]-[4-(5-chlorooxazolo[4,5-b]pyridin-2-yl)piperazin-1-yl]methanone] | 3 nM
COc1cc(C(=O)N2CCN(c3nc4nc(C)ccc4o3)CC2)ccc1-c1ncn(C(C)(C)C)n1 [Example 123, (4-(1-(tert-butyl)-1H-1,2,4-triazol-3-yl)-3-methoxyphenyl)(4-(5-methyloxazolo[4,5-b]pyridin-2-yl)piperazin-1-yl)methanone] | 174 nM
COc1cc(C(=O)N2CCN(c3nc4nc(Cl)ccc4o3)CC2)ccc1-c1ncn(C(C)(C)C)n1 [Example 124, (4-(1-(tert-butyl)-1H-1,2,4-triazol-3-yl)-3-methoxyphenyl)(4-(5-chlorooxazolo[4,5-b]pyridin-2-yl)piperazin-1-yl)methanone] | 81 nM
O=C(c1ccc(-c2cn(CC3(F)CC3)nn2)cc1)N1CCN(c2nc3nc(Cl)ccc3o2)CC1 [Example 125, (4-(5-chlorooxazolo[4,5-b]pyridin-2-yl)piperazin-1-yl)(4-(1-((1-fluorocyclopropyl)methyl)-1H-1,2,3-triazol-4-yl)phenyl)methanone] | 121 nM
Cc1ccc2oc(N3CCN(C(=O)c4ccc(-c5cn(CC6(F)CC6)nn5)cc4)CC3)nc2n1 [Example 126, (4-(1-((1-fluorocyclopropyl)methyl)-1H-1,2,3-triazol-4-yl)phenyl)(4-(5-methyloxazolo[4,5-b]pyridin-2-yl)piperazin-1-yl)methanone] | 472 nM
Cc1ccc2oc(N3CCN(C(=O)c4ccc(-c5nc(C(C)(C)C)nn5C)cc4)CC3)nc2n1 [Example 127, [4-(5-tert-butyl-2-methyl-1,2,4-triazol-3-yl)phenyl]-[4-(5-methyloxazolo[4,5-b]pyridin-2-yl)piperazin-1-yl]methanone] | 228 nM
Cc1ccc2oc(N3CCN(C(=O)c4cnc(-n5cnc(C(C)(C)C)n5)c(C)c4)CC3)nc2n1 [Example 128, [6-(3-tert-butyl-1,2,4-triazol-1-yl)-5-methylpyridin-3-yl]-[4-(5-methyl-[1,3]oxazolo[4,5-b]pyridin-2-yl)piperazin-1-yl]methanone] | 107 nM
Cc1cc(C(=O)N2CCN(c3nc4nc(Cl)ccc4o3)CC2)cnc1-n1cnc(C(C)(C)C)n1 [Example 129, [6-(3-tert-butyl-1,2,4-triazol-1-yl)-5-methylpyridin-3-yl]-[4-(5-chloro-[1,3]oxazolo[4,5-b]pyridin-2-yl)piperazin-1-yl]methanone] | 52 nM
Cc1ccc2oc(N3CCN(C(=O)c4cnc(-n5cc(C(C)(C)C)cn5)c(C)c4)CC3)nc2n1 [Example 130, [6-(4-tert-butylpyrazol-1-yl)-5-methylpyridin-3-yl]-[4-(5-methyl-[1,3]oxazolo[4,5-b]pyridin-2-yl)piperazin-1-yl]methanone] | 8 nM
CC(C)(C#N)Cn1cc(-c2ccc(C(=O)N3CCN(c4nc5nc(Cl)ccc5o4)CC3)cc2)nn1 [Example 131, 3-[4-[4-[4-(5-chlorooxazolo[4,5-b]pyridin-2-yl)piperazine-1-carbonyl]phenyl]triazol-1-yl]-2,2-dimethyl-propanenitrile] | 35 nM
CC(C)(F)Cn1cc(-c2ccc(C(=O)N3CCN(c4nc5nc(Cl)ccc5o4)CC3)cc2)nn1 [Example 132, (4-(5-chlorooxazolo[4,5-b]pyridin-2-yl)piperazin-1-yl)(4-(1-(2-fluoro-2-methylpropyl)-1H-1,2,3-triazol-4-yl)phenyl)methanone] | 49 nM
Cc1ccc2oc(N3CCN(C(=O)c4ccc(-c5cn(CC(C)(C)F)nn5)cc4)CC3)nc2n1 [Example 133, (4-(1-(2-fluoro-2-methylpropyl)-1H-1,2,3-triazol-4-yl)phenyl)(4-(5-methyloxazolo[4,5-b]pyridin-2-yl)piperazin-1-yl)methanone] | 94 nM
CC(C)(CF)n1cc(-c2ccc(C(=O)N3CCN(c4nc5nc(Cl)ccc5o4)CC3)cc2)nn1 [Example 134, (4-(5-chlorooxazolo[4,5-b]pyridin-2-yl)piperazin-1-yl)(4-(1-(1-fluoro-2-methylpropan-2-yl)-1H-1,2,3-triazol-4-yl)phenyl)methanone] | 48 nM
Cc1ccc2oc(N3CCN(C(=O)c4ccc(-c5cn(C(C)(C)CF)nn5)cc4)CC3)nc2n1 [Example 135, (4-(1-(1-fluoro-2-methylpropan-2-yl)-1H-1,2,3-triazol-4-yl)phenyl)(4-(5-methyloxazolo[4,5-b]pyridin-2-yl)piperazin-1-yl)methanone] | 116 nM
CC(C)(C#N)Cn1ncc(-c2ccc(C(=O)N3CCN(c4nc5nc(Cl)ccc5o4)CC3)cc2)n1 [Example 136, 3-[4-[4-[4-(5-chlorooxazolo[4,5-b]pyridin-2-yl)piperazine-1-carbonyl]phenyl]triazol-2-yl]-2,2-dimethyl-propanenitrile] | 34 nM
Cc1nc(C(=O)N2CCN(c3nc4nc(Cl)ccc4o3)CC2)cnc1OCC1(C(F)(F)F)CC1 [Example 137, [4-(5-chlorooxazolo[4,5-b]pyridin-2-yl)piperazin-1-yl]-[6-methyl-5-[[1-(trifluoromethyl)cyclopropyl]methoxy]pyrazin-2-yl]methanone] | 34 nM
